# Where two headings read alike, the source gives them in different places.
# What was measured:
# [1] = Dissolution rates, Paddle Method, Apparatus 2 USP XXI, artificial gastric and intestinal juice; format: physicochemical; settings: 37 °C, 100 rpm, equ. 400 mg
# Procedure: The dissolution tests were performed in 0.027N HCl and 0.06N HCl (artificial gastric juice) and in artificial intestinal juice, pH 6.0, at the temperature of 37° C. The volume of the artificial biological fluids was 1000 ml. The stirring rate of the paddle mixer was 100 rpm.
# [2] = In vitro diffusion/resorption test, Stricker method, Sartorius model; format: in vitro ADME; settings: for Papp: not told, read-out: In vitro diffusion rate constant (kd) (converted)
# Procedure: The resorption tests were performed according to the Stricker method on a Sartorius Dissolution Model (Sartorius Dissolution Model, Instruction Manual, Sartorius Membranfilter, Gottingen 1972). The diffusion rates of ibuproxam through artificial lipid membranes at different pH values were determined. On the basis of the found diffusion rate constants (kd) the in vitro resorption rate constants (ka) were calculated.
# [3] = Dissolution profiles/rates on Sartorius Dissolution Model SM 16751; format: physicochemical
# Procedure: The quantities of the dissolved (MG) and of the resorbed (Mi) active ingredient were determined using a Sartorius Dissolution Model SM 16751 (Sartorius Dissolution Model, Instruction Manual, Sartorius Membranfilter, Gottingen 1972).
# [4] = In vitro ibuproxam release from pharmaceutical forms, Paddle Method USP XXI; format: physicochemical; settings: 0.027 HCl, 37 °C, 100 rpm; ibuproxam and Ibudros 400 mg, complex equiv. to 200 mg; mean of 3
smiles,measurement,setting,value
"CC(C)Cc1ccc(C(C)C(=O)NO)cc1 (stereo not shown) [ibuproxam, 2-(4-isobutylphenyl)-propiohydroxamic acid]",% of dissolved ibuproxam,"[1]; 0.027 N HCl pH 1.6, 5 min",21.4%
same,% of dissolved ibuproxam,"[1]; 0.027 N HCl pH 1.6, 15 min",28.1%
same,% of dissolved ibuproxam,"[1]; 0.027 N HCl pH 1.6, 30 min",33.3%
same,% of dissolved ibuproxam,"[1]; 0.027 N HCl pH 1.6, 45 min",37.4%
same,% of dissolved ibuproxam,"[1]; 0.027 N HCl pH 1.6, 60 min",43.1%
same,% of dissolved ibuproxam,"[1]; 0.06 N HCl pH 1.2, 5 min",21.8%
same,% of dissolved ibuproxam,"[1]; 0.06 N HCl pH 1.2, 15 min",29.8%
same,% of dissolved ibuproxam,"[1]; 0.06 N HCl pH 1.2, 30 min",37.4%
same,% of dissolved ibuproxam,"[1]; 0.06 N HCl pH 1.2, 45 min",40.4%
same,% of dissolved ibuproxam,"[1]; 0.06 N HCl pH 1.2, 60 min",41.7%
same,% of dissolved ibuproxam,"[1]; artificial intestinal juice pH 6.0, 5 min",10.2%
same,% of dissolved ibuproxam,"[1]; artificial intestinal juice pH 6.0, 15 min",21.2%
same,% of dissolved ibuproxam,"[1]; artificial intestinal juice pH 6.0, 30 min",27.7%
same,% of dissolved ibuproxam,"[1]; artificial intestinal juice pH 6.0, 45 min",32.7%
same,% of dissolved ibuproxam,"[1]; artificial intestinal juice pH 6.0, 60 min",33.3%
same,Papp,"[2]; pH 1.2, average of 4 tests",235 ×10⁻⁶ cm/s
same,Papp,"[2]; pH 3.0, average of 4 tests",238 ×10⁻⁶ cm/s
same,Papp,"[2]; pH 6.0, average of 4 tests",233 ×10⁻⁶ cm/s
same,In vitro resorption rate constant (ka),"[2]; pH 1.2, calculated from kd with G = 4.3",0.060 min⁻¹
same,In vitro resorption rate constant (ka),"[2]; pH 6.0, calculated from kd with G = 10.0",0.138 min⁻¹
same,dissolution rate (kdiss),[3],0.00017 s⁻¹
same,"effect of pH of the biological fluids on dissolution rate, in words",[3],does not affect the dissolution rate
same,% dissolved within 15 min,[4],35.8%
same,% dissolved within 30 min,[4],43.4%
same,% dissolved within 60 min,[4],54.5%

# Reference: patent US4952565A (priority 1986, dated 1990)
